Results as given in paper PMC6440977, “Nucleoside analogue activators of cyclic AMP-independent protein kinase A of Trypanosoma” (Nature Communications, 2019).
Several values for one entry are separate records, joined by “and”; a condition that tells them apart may be missing. Identical values can stand only once. Like-named read-outs stand apart in the source and are kept apart here.

Legend:
[1] = test system: T. brucei ∆pkar/∆pkar (pkar KO) cells; assay: microbe, parasite or virus in culture; format: cell-based, Trypanosoma brucei; conditions: Trypanosoma brucei
T. brucei PKAR(199–499) = T. brucei PKAR(199–499) (Trypanosoma brucei, UniProt Q9GU80); assay: biochemical; format: binding; design: Thermodynamics (ITC) -TΔS / Thermodynamics (ITC) ΔG / Thermodynamics (ITC) ΔH: unit: kcal/mol
Sequence of T. brucei PKAR(199–499) (Q9GU80 entry or part of it): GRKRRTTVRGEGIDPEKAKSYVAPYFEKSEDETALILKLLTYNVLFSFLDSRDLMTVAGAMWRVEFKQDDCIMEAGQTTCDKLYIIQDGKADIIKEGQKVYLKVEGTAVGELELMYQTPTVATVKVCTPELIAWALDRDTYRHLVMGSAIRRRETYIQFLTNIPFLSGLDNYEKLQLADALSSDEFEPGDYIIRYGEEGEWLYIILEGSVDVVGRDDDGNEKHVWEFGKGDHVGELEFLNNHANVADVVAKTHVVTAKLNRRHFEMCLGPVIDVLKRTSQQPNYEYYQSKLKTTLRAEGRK

T. brucei PKA = T. brucei PKA (Trypanosoma brucei brucei, UniProt Q9GU80); assay: In vivo PKA reporter assay (VASP Ser-157 phosphorylation, western blot); format: cell-based;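 also: T. brucei cells expressing human VASP as heterologous PKA substrate, compound exposure at 37 °C, western blot of phospho (50 kDa) versus unphosphorylated (46 kDa) VASP band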
Sequence of T. brucei PKA (Q38DS1 entry or part of it): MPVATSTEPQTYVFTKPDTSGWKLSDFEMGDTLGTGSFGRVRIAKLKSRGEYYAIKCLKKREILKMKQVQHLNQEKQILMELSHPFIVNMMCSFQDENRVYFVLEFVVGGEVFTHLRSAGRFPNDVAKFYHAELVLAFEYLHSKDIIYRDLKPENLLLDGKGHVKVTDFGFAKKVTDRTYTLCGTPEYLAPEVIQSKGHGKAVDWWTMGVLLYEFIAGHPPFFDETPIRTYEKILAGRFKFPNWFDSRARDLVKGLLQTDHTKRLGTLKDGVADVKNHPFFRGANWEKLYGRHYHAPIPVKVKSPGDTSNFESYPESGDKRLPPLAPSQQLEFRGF
Sequence of T. brucei PKA (Q38DR5 entry or part of it, further chain): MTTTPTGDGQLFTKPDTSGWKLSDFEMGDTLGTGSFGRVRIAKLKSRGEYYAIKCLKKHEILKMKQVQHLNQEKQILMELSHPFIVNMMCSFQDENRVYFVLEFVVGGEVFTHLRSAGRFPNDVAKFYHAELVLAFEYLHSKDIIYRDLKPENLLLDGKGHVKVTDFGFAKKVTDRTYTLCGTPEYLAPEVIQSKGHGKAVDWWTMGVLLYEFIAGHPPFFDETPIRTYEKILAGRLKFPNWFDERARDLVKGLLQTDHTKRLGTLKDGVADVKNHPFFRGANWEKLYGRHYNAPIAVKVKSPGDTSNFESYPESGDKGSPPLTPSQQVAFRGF
Sequence of T. brucei PKA (Q9GU80 entry or part of it): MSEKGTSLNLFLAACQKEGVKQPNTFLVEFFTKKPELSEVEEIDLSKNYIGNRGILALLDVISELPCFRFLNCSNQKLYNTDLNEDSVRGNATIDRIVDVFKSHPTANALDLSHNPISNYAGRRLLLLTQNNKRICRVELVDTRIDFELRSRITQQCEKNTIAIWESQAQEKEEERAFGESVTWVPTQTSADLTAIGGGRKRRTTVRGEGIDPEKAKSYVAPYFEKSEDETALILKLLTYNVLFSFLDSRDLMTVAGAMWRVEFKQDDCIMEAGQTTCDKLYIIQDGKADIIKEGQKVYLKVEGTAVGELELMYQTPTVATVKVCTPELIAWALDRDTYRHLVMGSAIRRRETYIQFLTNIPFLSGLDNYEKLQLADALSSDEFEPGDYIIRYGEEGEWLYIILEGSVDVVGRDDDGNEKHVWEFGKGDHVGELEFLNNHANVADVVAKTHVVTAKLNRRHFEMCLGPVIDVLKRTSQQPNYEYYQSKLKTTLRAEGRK

PKAR = assay: Western blot quantification of protein abundance, PKAR; format: cell-based, Trypanosoma brucei; conditions: WT cells, normalized to PFR, WT 0h set to 1, individual replicates
Source text: Replicate 1 Replicate 2 Replicate 3 PKAR
WT pkar KOWT pkar KO pkar WTKO1.0PKAC1/2 […]
(a) Samples prepared for quantitative proteome analysis: PKAR and PKAC1/2 protein levels (top Western panels, red) and RXXS*/T* phos-phorylation (bottom Western panels, phospho-specific anti-RXXS*/T*, red) are quantified as summarized in the column charts next to the Western blots. The scanned values were normalized to the loading control (PFR-A/C, green) and the untreated wild type sample was set to 1. Wild type (WT) and ∆pkar/∆pkar (pkar KO) cells were treated with 7-CN-7-C-Ino (Ino) for the indicated time (PKAR/PKAC1 expression) or for 10 min (RXXS*/T* phosphorylation). Error bars represent SD of three independent experiments.
>1.5 fold (vertical dashed lines) with a p-value of <0.05 (Welch’s t-test, two-sided) are labeled as blue dots with their TriTrypDB IDs.
Source data are provided as a Source Data file.
(also on this page, place not known: WT -Log10 WT6 -Log KO6 2 4 KO -1 / KO0 -Log10 p-value KO12 / KO0 2 4 10 WT (b) p-value p-value 2 4 -Log10 p-value / WT0 -1 0 1 WT12 / WT0 Fold expression 0 0 WT KO 1.0 PKAC1/2 WT pkar KO + - 0 1 2 4 Fold RXXS/T phosphorylation 11) […]
For Western blot analysis14, the primary antibodies anti-PKAR7 (1:500), anti - […]
(ThermoFisher, catalogue number A27042, 1:5000) were used for detection using the OdysseyTM IR fluorescence scanning system. […]

PKAC1/2 = format: cell-based, Trypanosoma brucei; conditions: for PKAC1/2 Western quantification: normalized to PFR, WT 0h set to 1, individual replicates; for PKAC1/2 counts / PKAC1/2 normalized / PKAC1/2 fold change: 4 µM; for PKAC1/2 normalized: normalized to PFR-A/C; for PKAC1/2 fold change: untreated WT set to 1
T. brucei BSF cells (WT) = assay: Alamar blue cell viability assay, wild type;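 also: trypanosomes seeded at 5×10^3 per ml and grown 72 h with compound, then resazurin 0.5 mM added for 4 h as the viability read-out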
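For PKAC1/2 Western quantification in this document: trypanosoma brucei cells, PKAC1/2 signal from western blots read on an infrared fluorescence scanning system.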
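For PKAC1/2 counts in this document: trypanosoma brucei cells, PKAC1/2 signal from western blots read on an infrared fluorescence scanning system.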
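For PKAC1/2 fold change in this document: trypanosoma brucei cells, PKAC1/2 signal from western blots read on an infrared fluorescence scanning system.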
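For PKAC1/2 normalized in this document: trypanosoma brucei cells, PKAC1/2 signal from western blots read on an infrared fluorescence scanning system.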

## N#Cc1cn([C@@H]2O[C@H](CO)[C@@H](O)[C@H]2O)c2ncnc(O)c12 [7-CN-7-C-Ino, 7-Cyano-7-deazainosine]
[1]; 72 h, read-out: IC50 growth pkar KO
  IC50: ≥ 125 µM
[1]; read-out: EC50, Alamar blue cell viability assay, KO, individual replicate results, pkar KO cells, fit ambiguous, bound given in µM
  EC50: > 125 µM
T. brucei PKAR(199–499); 298 K, mean ± SD, n=3, read-out: KD in vitro binding to PKAR (ITC)
  Kd: 0.008 ± 0.002 µM
T. brucei PKAR(199–499); ITC, mean
  −TΔS (entropic component of binding): -2.3 kcal/mol
T. brucei PKAR(199–499); independent replicates
  Thermodynamics (ITC) -TΔS: -2.82 and -2.13 and -1.91
  Thermodynamics (ITC) ΔG: -11.3 and -10.9 and -11
  Thermodynamics (ITC) ΔH: -8.48 and -8.8 and -9.1
T. brucei PKAR(199–499); ligand to protein, mean ± SD, n=3
  Molar ratio of binding (ITC): 2 ± 0.2
T. brucei PKAR(199–499); ratio of KD
  higher binding affinity to PKAR compared to Toyo: 7 fold
T. brucei PKA; 4 µM, 15 min
  VASP phosphorylation in PKAC3 deletion + PKAC1/2 RNAi cell line, in words: undetectable
T. brucei PKA; read-out: EC50 in vivo PKA assay, VASP reporter, 15 min treatment, mean ± SD
  EC50: 0.838 ± 0.139 µM
PKAR; 6 h treatment
  PKAR Western quantification: 0.8653 and 0.7031 and 1.455
PKAR; 12 h treatment
  PKAR Western quantification: 0.7135 and 0.7185 and 1.457
PKAC1/2; R KO cells, 6 h treatment
  PKAC1/2 Western quantification: 0.4425 and 0.1597 and 0.1981
PKAC1/2; R KO cells, 12 h treatment
  PKAC1/2 Western quantification: 0.2802 and 0.2063 and 0.2365
PKAC1/2; WT cells, 6 h treatment
  PKAC1/2 Western quantification: 0.4685 and 0.4579 and 0.5439
PKAC1/2; WT cells, 12 h treatment
  PKAC1/2 Western quantification: 0.3997 and 0.2606 and 0.4376
PKAC1/2; WT, 12 h
  PKAC1/2 counts: 99.53
  PKAC1/2 normalized: 60.689
  PKAC1/2 fold change: 0.4385
PKAC1/2; WT, 18 h
  PKAC1/2 counts: 76
  PKAC1/2 normalized: 55.0725
  PKAC1/2 fold change: 0.3979
PKAC1/2; WT, 24 h
  PKAC1/2 counts: 86.74
  PKAC1/2 normalized: 55.6026
  PKAC1/2 fold change: 0.4018
PKAC1/2; pkar KO, 12 h
  PKAC1/2 counts: 70.66
  PKAC1/2 normalized: 3.197
  PKAC1/2 fold change: 0.1969
PKAC1/2; pkar KO, 18 h
  PKAC1/2 counts: 69.65
  PKAC1/2 normalized: 3.869
  PKAC1/2 fold change: 0.2383
PKAC1/2; pkar KO, 24 h
  PKAC1/2 counts: 95.11
  PKAC1/2 normalized: 3.187
  PKAC1/2 fold change: 0.1963
T. brucei BSF cells (WT)
  increase of EC50 for cell viability compared to Toyo: > 170 fold
T. brucei BSF cells (WT); Trypanosoma brucei, 72 h, read-out: IC50 growth WT
  IC50: ≥ 125 µM
T. brucei BSF cells (WT); Trypanosoma brucei, read-out: EC50, Alamar blue cell viability assay, WT, individual replicate results, wild type cells, fit ambiguous, bound given in µM
  EC50: > 125 µM
T. brucei BSF cells (WT); continuous treatment
  effect on growth or viability, in words: does not produce these PKA-independent effects
